The values that follow come from ChEMBL document CHEMBL5370693, “Kinases Controlling Stability of the Oncogenic MYCN Protein” (ACS Med Chem Lett, 2023).

Active and inactive are the calls of the source. The rule behind the calls is not given here.

Common to all, as to type: cell-based
The target of test [1] is Serine/threonine-protein kinase 38-like (Homo sapiens) (UniProt Q9Y2H1). As to the kind of experiment: Inhibition of NDR2 in human SKNBE2 cells assessed as depletion of MYCN protein at 10 uM measured after 24 hrs in presence of CHIR-124, BEZ235 and Cx4945 by Western blot analysis. Background: A western blot detects proteins with antibodies after separation by electrophoresis.

The target is the same in test [2]. The test is described as follows: Inhibition of NDR2 in human SKNBE2 cells assessed as depletion of MYCN protein at 10 uM measured after 24 hrs in presence of CHIR-124 and BEZ235 by Western blot analysis.
For test [3] the target is unchanged. As to the kind of experiment: Binding affinity to STK38L in human SKNBE2 cells assessed as effect on thermal stability at 49 degC incubated for 3 hrs by CETSA assay.
The target is the same in test [4]. The test is described as follows: Inhibition of NDR2 in human SKNBE2 cells assessed as decreased accumulation of MYCN protein measured after 24 hrs by Western blot analysis.
Test [5] has the same target. As to the kind of experiment: Inhibition of NDR2 in human SKNBE2 cells assessed as depletion of MYCN protein at 10 uM measured after 24 hrs in presence of BEZ235 and Cx4945 by Western blot analysis.
For test [6] the target is unchanged. As to the kind of experiment: Inhibition of NDR2 in human SKNBE2 cells assessed as depletion of MYCN protein at 10 uM measured after 24 hrs in presence of Cx4945 by Western blot analysis.
Test [7] shares this target. As to the kind of experiment: Inhibition of NDR2 in human SKNBE2 cells assessed as depletion of MYCN protein at 10 uM measured after 24 hrs in presence of CHIR-124 by Western blot analysis.
Test [8] has the same target. As to the kind of experiment: Inhibition of NDR2 in human SKNBE2 cells assessed as depletion of MYCN protein at 10 uM measured after 24 hrs in presence of BEZ235 by Western blot analysis.
For test [9], the target named is T1, N-myc proto-oncogene protein (Homo sapiens) (UniProt P04198).
T1 sequence (whole entry): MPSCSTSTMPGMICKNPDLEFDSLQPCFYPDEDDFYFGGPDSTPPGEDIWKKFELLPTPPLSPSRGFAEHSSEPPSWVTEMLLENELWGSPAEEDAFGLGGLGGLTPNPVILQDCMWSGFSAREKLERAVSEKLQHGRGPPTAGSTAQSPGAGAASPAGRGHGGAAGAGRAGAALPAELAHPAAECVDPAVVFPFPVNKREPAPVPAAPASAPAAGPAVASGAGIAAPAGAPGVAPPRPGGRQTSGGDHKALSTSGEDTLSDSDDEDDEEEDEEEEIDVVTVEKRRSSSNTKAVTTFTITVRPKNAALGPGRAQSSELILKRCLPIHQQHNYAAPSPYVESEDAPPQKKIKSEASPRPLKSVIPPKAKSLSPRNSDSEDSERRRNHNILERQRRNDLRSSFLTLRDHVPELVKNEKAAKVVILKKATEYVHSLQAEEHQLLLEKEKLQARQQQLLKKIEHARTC
The test is described as follows: Induction of MYCN degradation in human SKNBE2 cells at 5 to 15 uM incubated for 24 hrs by Western blot analysis. The following applies: dose 5-15 µM.

In test [10] the target is Serine/threonine-protein kinase 38-like (Homo sapiens) (UniProt Q9Y2H1). The test is described as follows: Inhibition of NDR2 in human SKNBE2 cells assessed as depletion of MYCN protein at 10 uM measured after 24 hrs in presence of CHIR-124 and Cx4945 by Western blot analysis.
Test [11] has as its system SKNBE2. As to the kind of experiment: Inhibition of CK2 in human SKNBE2 cells assessed as reduction in MYCN/GADPH protein ratio at 20 uM incubated for 24 hrs in presence of CHIR-124/BEZ235 by Western blotting analysis.
Test [12] concerns the target T1, N-myc proto-oncogene protein (Homo sapiens). The test is described as follows: Induction of MYCN degradation in human SKNBE2 cells at 5 uM incubated for 24 hrs by Western blot analysis.
Test [13] concerns SKNBE2. As to the kind of experiment: Inhibition of PI3K in human SKNBE2 cells assessed as depletion of MYCN protein at 5 uM measured after 24 hrs in presence of Cx4945 and NG25 by Western blot analysis.
The subject of test [14] is SKNBE2. The test is described as follows: Inhibition of PI3K in human SKNBE2 cells assessed as depletion of MYCN protein at 5 uM measured after 24 hrs in presence of Cx4945 by Western blot analysis.
Test [15] deals with SKNBE2. The test is described as follows: Inhibition of PI3K in human SKNBE2 cells assessed as depletion of MYCN protein at 5 uM measured after 24 hrs in presence of NG25 and CHIR-124 by Western blot analysis.
Test [16] relates to SKNBE2. The test is described as follows: Inhibition of PI3K in human SKNBE2 cells assessed as depletion of MYCN protein at 5 uM measured after 24 hrs in presence of Cx4945 and CHIR-124 by Western blot analysis.
For test [17], the system named is SKNBE2. The test is described as follows: Inhibition of PI3K in human SKNBE2 cells assessed as reduction in MYCN/GADPH protein ratio at 5 uM incubated for 24 hrs in presence of CHIR-124 by Western blotting analysis.
Test [18] relates to SKNBE2. The test is described as follows: Inhibition of PI3K in human SKNBE2 cells assessed as depletion of MYCN protein at 5 uM measured after 24 hrs in presence of CHIR-124 by Western blot analysis.
The subject of test [19] is SKNBE2. As to the kind of experiment: Inhibition of PI3K in human SKNBE2 cells assessed as degradation of MYCN protein at 5 to 10 uM incubated for 24 hrs by Western blotting analysis. The following applies: dose 5-10 µM.
Test [20] concerns SKNBE2. The test is described as follows: Inhibition of PI3K in human SKNBE2 cells assessed as depletion of MYCN protein at 5 uM measured after 24 hrs in presence of NG25 by Western blot analysis.
The subject of test [21] is SKNBE2. The test is described as follows: Inhibition of PI3K in human SKNBE2 cells assessed as reduction in MYCN/GADPH protein ratio at 5 uM incubated for 24 hrs in presence of […]/CHIR-124 by Western blotting analysis.
For test [22], the system named is SKNBE2. As to the kind of experiment: Inhibition of PI3K in human SKNBE2 cells assessed as depletion of MYCN protein at 5 uM measured after 24 hrs in presence of NG25, Cx4945 and CHIR-124 by Western blot analysis.
Test [23] deals with SKNBE2. As to the kind of experiment: Inhibition of PI3K in human SKNBE2 cells assessed as reduction in MYCN/GADPH protein ratio at 5 uM incubated for 24 hrs in presence of Cx945 by Western blotting analysis.
The target of test [24] is T1, N-myc proto-oncogene protein (Homo sapiens). The test is described as follows: Induction of MYCN degradation in human SKNBE2 cells at 45 uM incubated for 24 hrs by Western blot analysis.
For test [25] the target is unchanged. The test is described as follows: Induction of MYCN degradation in human SKNBE2 cells at 5 to 50 uM incubated for 24 hrs by Western blot analysis. The following applies: dose 5-50 µM.
Test [26] shares this target. The test is described as follows: Induction of MYCN degradation in human SKNBE2 cells incubated for 24 hrs by Western blot analysis. The following applies: dose 1-50 µM.
For test [27], the target named is T2, Serine/threonine-protein kinase Chk1 (Homo sapiens) (UniProt O14757).
T2 sequence (whole entry): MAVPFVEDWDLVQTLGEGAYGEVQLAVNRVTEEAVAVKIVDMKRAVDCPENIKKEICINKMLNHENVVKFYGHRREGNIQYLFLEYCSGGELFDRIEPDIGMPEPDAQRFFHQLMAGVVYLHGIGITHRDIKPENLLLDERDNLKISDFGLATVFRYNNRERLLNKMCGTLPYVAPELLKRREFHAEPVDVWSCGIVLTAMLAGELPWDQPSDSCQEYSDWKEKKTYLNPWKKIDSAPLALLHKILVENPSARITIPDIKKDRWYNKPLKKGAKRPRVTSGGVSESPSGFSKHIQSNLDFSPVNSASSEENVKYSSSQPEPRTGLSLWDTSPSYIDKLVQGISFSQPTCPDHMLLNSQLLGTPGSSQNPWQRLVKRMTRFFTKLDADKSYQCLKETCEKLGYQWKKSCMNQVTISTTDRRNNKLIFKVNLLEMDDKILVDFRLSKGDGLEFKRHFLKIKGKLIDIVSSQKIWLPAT
The test is described as follows: Inhibition of CHK1 in human SKNBE2 cells assessed as depletion of MYCN protein at >1 uM incubated for 24 hrs by Western blotting analysis.

For test [28], the system named is SKNBE2. As to the kind of experiment: Inhibition of PI3K in human SKNBE2 cells assessed as degradation of MYCN protein at 10 to 15 uM incubated for 24 hrs by Western blotting analysis. The following applies: dose 10-15 µM.

Serine/threonine-protein kinase 38-like (Homo sapiens), sequence (Q9Y2H1 2-464 limits assumed): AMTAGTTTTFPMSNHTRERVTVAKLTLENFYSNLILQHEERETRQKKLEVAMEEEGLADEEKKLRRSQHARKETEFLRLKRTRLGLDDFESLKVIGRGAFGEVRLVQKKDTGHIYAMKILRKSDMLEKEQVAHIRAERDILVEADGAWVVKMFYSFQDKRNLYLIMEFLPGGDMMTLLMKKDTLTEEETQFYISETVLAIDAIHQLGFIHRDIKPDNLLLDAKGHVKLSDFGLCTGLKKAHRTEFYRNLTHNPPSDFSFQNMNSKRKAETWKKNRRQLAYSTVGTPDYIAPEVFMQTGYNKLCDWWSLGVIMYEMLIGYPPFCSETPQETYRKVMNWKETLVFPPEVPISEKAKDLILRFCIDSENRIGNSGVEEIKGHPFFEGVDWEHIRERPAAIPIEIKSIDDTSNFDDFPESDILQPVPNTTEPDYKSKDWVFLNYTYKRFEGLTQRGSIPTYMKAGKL

In the case of `CCN1CCN(Cc2ccc(NC(=O)c3ccc(C)c(Oc4ccnc5[nH]ccc45)c3)cc2C(F)(F)F)CC1`, the inhibition result in test [1], in test [2], in [5], in [7] and in test [8] was “Active” throughout. Besides, the result in test [3] was inactive. In test [4], the inhibition result was “Dose-Dependent Effect”. Besides, the inhibition entry in test [6] is “inactive”.

For `CCN1CCN(c2ccc(Nc3cc(N(C)C(=O)Nc4c(Cl)c(OC)cc(OC)c4Cl)ncn3)cc2)CC1`, the inhibition result in test [4] was “Dose-Dependent Effect”.

`CCCCCCOc1ccc2c(=O)c(-c3ccc(O)c(O)c3)coc2c1`: the result in test [9] was Active.

For `O=C(O)c1ccc2c(c1)nc(Nc1cccc(Cl)c1)c1ccncc12`, the inhibition result in test [10] and in test [11] was “Active” each time.

Regarding `CC(C)CCOc1ccc2c(c1)OCC(c1ccc(O)c(O)c1)C2` (stereo not given), the outcome in [12] was Active.

On to `Cn1c(=O)n(-c2ccc(C(C)(C)C#N)cc2)c2c3cc(-c4cnc5ccccc5c4)ccc3ncc21`, for which the inhibition result in [13], in test [14], in test [15], in test [16], in [17] and in test [18] was “Active” in each case. Further, the inhibition result in test [20], in test [21], in test [22] and in test [23] was “Active” in each case. Besides, in test [19], the inhibition entry is “inactive”.

Regarding `CC(C)CCOc1ccc2occ(-c3ccc(O)c(O)c3)c(=O)c2c1`, the outcome in test [24] was Active.

Take `COc1cc(N2CCC(N3CCN(C)CC3)CC2)ccc1Nc1ncc(Cl)c(Nc2ccccc2S(=O)(=O)C(C)C)n1`: in test [4], the inhibition entry was “Dose-Dependent Effect”.

Consider `CCCOc1ccc2c(=O)c(-c3ccc(O)c(O)c3)coc2c1`, for which, in test [25], the outcome was Active.

Consider `COc1cc(C)c(Sc2cnc(NC(=O)c3ccc(CNC(C)C(C)(C)C)cc3)s2)cc1C(=O)N1CCN(C(C)=O)CC1` (stereo not given), for which the Activity result in [26] was “Dose-Dependent Effect”.

With `Cn1cc(-c2[nH]c3cc(NC(=O)[C@H](N)C4CCCCC4)cc4c3c2C=NNC4=O)cn1`, in test [27], the inhibition result was “Active”.

`CS(=O)(=O)N1CCN(Cc2cc3nc(-c4cccc5[nH]ncc45)nc(N4CCOCC4)c3s2)CC1`: the inhibition entry in [28] is “inactive”.
